The values that follow come from patent publication US10500164B2, “Nanoparticle-based combinatorial therapy” (The American University in Cairo, priority 2014, dated 2019).

A short description of the series: In-vitro drug release of DOX in Tris-HCl buffer pH 5 and PBS pH 7.4. Format: physicochemical. The settings on record: free DOX solution control, over 4 hrs. As to the method:
FIGS. 7A-B show according to an exemplary embodiment of the invention in-vitro release of free DOX, and DOX-NCs in Tris-HCl buffer pH 5 (FIG. 7A) and PBS pH 7.4 (FIG. 7B).
Since the release behavior of DOX-NCs at the desired site is of a great importance for formulating an ideal cancer-targeted drug delivery system, in-vitro release studies were performed at two different pH values were tested: pH 7.4, which mimics the pH of the blood stream and pH 5, which mimics the pH of the endosomes within cancer cells. In-vitro results […] that DOX-AgNCs, DOX-Ag/PVA NCs, DOX-Ag/PEG NCs and DOX-Ag/PVP NCs released 96.6%, 97.4%, 98% and 96.4% of DOX at pH 5. While at pH 7.4, the release percentages of DOX were 73.4%, 54.3%, 59.8% and 68.5% over the course of 6 hrs. […] In-vitro release is shown of free DOX, and DOX-NCs in Tris-HCl buffer pH 5 (FIG. 7A) and PBS pH 7.4 (FIG. 7B).

For `COc1cccc2c1C(=O)c1c(O)c3c(c(O)c1C2=O)C[C@@](O)(C(=O)CO)C[C@@H]3O[C@H]1C[C@H](N)[C@H](O)[C@H](C)O1` [free DOX, Doxorubicin], the “release percentage of DOX” value is, setting by setting: (pH 5) 97.4%; (pH 7.4) 67.7%.
